Experimental data: patent US9708334B2, “Substituted 2,4,5,6-tetrahydropyrrolo[3,4-c]pyrazole and 4,5,6,7-tetrahydro-2H-pyrazolo[4,3-c]pyridine compounds as GlyT1 inhibitors” (DART NEUROSCIENCE (CAYMAN) LTD., priority 2014, dated 2017)

Biological target: T1, GlyT1 (Homo sapiens, UniProt P48067)
T1 construct: expressed in transfected cells
T1 sequence (P48067 1-706): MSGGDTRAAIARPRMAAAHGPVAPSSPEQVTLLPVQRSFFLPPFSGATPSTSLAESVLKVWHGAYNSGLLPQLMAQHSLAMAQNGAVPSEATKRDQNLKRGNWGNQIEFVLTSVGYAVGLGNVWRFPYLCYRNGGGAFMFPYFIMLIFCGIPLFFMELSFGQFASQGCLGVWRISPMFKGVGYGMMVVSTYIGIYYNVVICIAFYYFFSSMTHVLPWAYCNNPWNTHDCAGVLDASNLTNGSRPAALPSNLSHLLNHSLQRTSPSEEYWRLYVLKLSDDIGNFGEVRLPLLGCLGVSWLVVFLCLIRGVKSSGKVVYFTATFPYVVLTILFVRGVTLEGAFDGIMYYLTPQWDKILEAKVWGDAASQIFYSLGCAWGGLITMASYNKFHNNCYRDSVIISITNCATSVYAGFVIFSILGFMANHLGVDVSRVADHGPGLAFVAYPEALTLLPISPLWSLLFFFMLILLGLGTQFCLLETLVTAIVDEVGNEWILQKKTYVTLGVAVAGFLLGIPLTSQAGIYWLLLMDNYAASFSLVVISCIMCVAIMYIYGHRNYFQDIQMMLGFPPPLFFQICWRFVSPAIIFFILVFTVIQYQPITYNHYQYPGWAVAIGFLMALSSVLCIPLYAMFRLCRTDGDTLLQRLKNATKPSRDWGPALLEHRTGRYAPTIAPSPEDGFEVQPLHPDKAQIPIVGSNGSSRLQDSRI
Experiment: Glycine Transporter 1 (GlyT1) uptake assay, scintillation proximity assay of [14C]-glycine uptake
Format: cell-based
Conditions: SPA, four parameter logistic fit, read-out: GlyT1 (pIC50) (converted)
Procedure, shortened: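 IC50 values derive from four-parameter logistic curves fitted to dose-response data. Uptake of [14C]-glycine measured in scintillation proximity format.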

Structure (SMILES)	IC50 [µM]
Cc1cccc(-n2cc3c(n2)CN(C(=O)c2cc(S(C)(=O)=O)ccc2OCC2(C)COC2)C3)c1F [Example 441, 2-(2-Fluoro-3-methylphenyl)-5-{5-methanesulfonyl-2-[(3-methyloxetan-3-yl)methoxy]benzoyl}-2H 4H 5H 6H-pyrrolo[3,4-c]pyrazole]	0.1 to 1
Cc1ccc(F)c(-n2cc3c(n2)CN(C(=O)c2cc(S(C)(=O)=O)ccc2OCC2(C)COC2)C3)c1 [Example 442, 2-(2-Fluoro-5-methylphenyl)-5-{5-methanesulfonyl-2-[(3-methyloxetan-3-yl)methoxy]benzoyl}-2H 4H 5H 6H-pyrrolo[3,4-c]pyrazole]	0.1 to 1
C[C@H](Oc1ccc(C#N)cc1C(=O)N1Cc2cn(-c3ccncc3)nc2C1)C(F)(F)F [Example 443, 3-[2-(Pyridin-4-yl)-2H 4H 5H 6H-pyrrolo[3,4-c]pyrazole-5-carbonyl]-4-{[(2S)-1 1 1-trifluoropropan-2-yl]oxy}benzonitrile]	< 0.1
CC(C)Oc1ccc(C#N)cc1C(=O)N1Cc2cnn(CC(F)(F)F)c2C1 [Example 444, 4-(Propan-2-yloxy)-3-[1-(2 2 2-trifluoroethyl)-1H 4H 5H 6H-pyrrolo[3,4-c]pyrazole-5-carbonyl]benzonitrile]	0.1 to 1
CS(=O)(=O)c1ccc(-c2cccc(F)c2)c(C(=O)N2Cc3cnn(CC(F)(F)F)c3C2)c1 [Example 445, 5-[2-(3-Fluorophenyl)-5-methanesulfonylbenzoyl]-1-(2 2 2-trifluoroethyl)-1H 4H 5H 6H-pyrrolo[3,4-c]pyrazole]	0.1 to 1
C[C@H](Oc1ccc(S(C)(=O)=O)cc1C(=O)N1Cc2cnn(-c3cccc4nccn34)c2C1)C(F)(F)F [Example 446, 1-{Imidazo[1 2-a]pyridin-5-yl}-5-(5-methanesulfonyl-2-{[(2S)-1 1 1-trifluoropropan-2-yl]oxy}benzoyl)-1H 4H 5H 6H-pyrrolo[3,4-c]pyrazole]	< 0.1
CC(C)Oc1ccc(C#N)cc1C(=O)N1Cc2cn(-c3ccncc3)nc2C1 [Example 447, 4-(Propan-2-yloxy)-3-[2-(pyridin-4-yl)-2H 4H 5H 6H-pyrrolo[3,4-c]pyrazole-5-carbonyl]benzonitrile]	< 0.1
CS(=O)(=O)c1ccc(-c2cccc(F)c2)c(C(=O)N2Cc3cn(C4CCOCC4)nc3C2)c1 [Example 448, 5-[2-(3-Fluorophenyl)-5-methanesulfonylbenzoyl]-2-(oxan-4-yl)-2H 4H 5H 6H-pyrrolo[3,4-c]pyrazole]	< 0.1
CS(=O)(=O)c1ccc(-c2cccc(F)c2)c(C(=O)N2Cc3cn(CC4CC4)nc3C2)c1 [Example 449, 2-(Cyclopropylmethyl)-5-[2-(3-fluorophenyl)-5-methanesulfonylbenzoyl]-2H 4H 5H 6H-pyrrolo[3,4-c]pyrazole]	< 0.1
CC(C)Oc1ccc(C#N)cc1C(=O)N1Cc2cn(CC3CC3)nc2C1 [Example 450, 3-[2-(Cyclopropylmethyl)-2H 4H 5H 6H-pyrrolo[3,4-c]pyrazole-5-carbonyl]-4-(propan-2-yloxy)benzonitrile]	0.1 to 1
C[C@H](Oc1ccc(C#N)cc1C(=O)N1Cc2cn(CC3CC3)nc2C1)C(F)(F)F [Example 451, 3-[2-(Cyclopropylmethyl)-2H 4H 5H 6H-pyrrolo[3,4-c]pyrazole-5-carbonyl]-4-{[(2S)-1 1 1-trifluoropropan-2-yl]oxy}benzonitrile]	0.1 to 1
CS(=O)(=O)c1ccc(-c2cccc(F)c2)c(C(=O)N2Cc3cnn(CC4CC4)c3C2)c1 [Example 452, 1-(Cyclopropylmethyl)-5-[2-(3-fluorophenyl)-5-methanesulfonylbenzoyl]-1H 4H 5H 6H-pyrrolo[3,4-c]pyrazole]	1 to 10
CS(=O)(=O)c1ccc(-c2cccc(F)c2)c(C(=O)N2Cc3cn(CC4CC4(F)F)nc3C2)c1 (stereo not shown) [Example 453, 2-[(2 2-Difluorocyclopropyl)methyl]-5-[2-(3-fluorophenyl)-5-methanesulfonylbenzoyl]-2H 4H 5H 6H-pyrrolo[3,4-c]pyrazole]	< 0.1
